The source of these data is patent EP0934745B1, “Use of androsterone derivatives for inhibiting DNA binding of ap-1 and airway smooth muscle proliferation” (CHARLOTTE-MECKLENBURG HOSPITAL doing business as Carolinas …, priority 1998, dated 1999).

The structures appear in SMILES notation.

The subject of the experiment is rat tracheal smooth muscle. Description: Proliferation of cultured airway smooth muscle (MTT reduction, cell counts). Format: cell-based. The settings on record: Rattus norvegicus; 50,000 cells/well cultured in 10% FBS for 48 hours; MTT reduction (Figure 3D); read-out: 50% inhibitory concentration. As to the method:
Polyclonal horseradish peroxidase anti-rabbit IgG was from Transduction Laboratories (Lexington, KY). M-MLV reverse transcriptase was from Life Technologies (Gaithersburg, MD). All other materials were obtained from Sigma unless specified. Measurement of Cultured Airway Smooth Muscle Proliferation. Rat tracheal smooth muscle was cultured by euthanizing rats with pentobarbital overdose and removal of their tracheas. The posterior tracheal membrane was isolated, minced and digested twice for 30 minutes at 37°C. in HBSS containing 0.2% type IV collagenase and 0.05% type IV elastase. Each enzyme digest was collected and centrifuged for 5 minutes at 500 g at room temperature. The supernatant was removed and the pellet was resuspended in DMEM supplemented with 10% FBS, nonessential amino acids, penicillin (100 U/ml), streptomycin (100 µg/ml) and amphotericin (250 ng/ml). Cells were seeded in this medium into 25-cm^2 flasks at 2 x 10^5 cells per flask and incubated in a humidified atmosphere of 5% CO2/95% air at 37°C. Upon reaching confluence, cells were detached with 0.25% trypsin-0.002% EDTA solution for passage.
Proliferation of cultured airway smooth muscle was quantitated using modification of a previously reported colorimetric method based upon metabolic reduction of the soluble yellow tetrazolium dye 3-[4,5-dimethylthiazol]-2yl-2,5-diphenyl tetrazolium bromide (MTT) to its insoluble purple formazan by the action of mitochondrial succinyl dehydrogenase. See Hirst, S.J., Barnes, P.J., and Twort, C.H.C., "Quantifying proliferation of cultured human and rabbit airway smooth muscle in response to serum and platelet derived growth factor," Am. J. Respir. Cell Mol. Biol., 7, 574-581 (1992). This assay empirically distinguishes between dead and living cells. For proliferation studies, cells were seeded into 24-well uncoated plastic plates at 15,000-50,000 cells per well and cultured with DMEM and mitogens. After 24-96 hours the medium was replaced with 1 ml/well fresh DMEM containing 100 µg/ml MTT and 0.5% FBS, and plates were incubated an additional hour MTT-containing medium was removed, cells were washed twice with 1 ml of sterile Dulbecco's modified phosphate buffered saline without Ca^2+ or Mg^2+ (DPBS), 0.5 ml dimethylsulfoxide (DMSO) was added to each well, and the absorbance of the solubilized purple formazan dye was measured at 540 nm on a Shimadzu UV160U spectrophotometer. A total of 4-6 wells was studied at each treatment condition.
The optimum concentration of FBS for use as a mitogenic stimulus was determined by incubating 15,000 cells per well with DMEM containing 0.25, 1.0, 5.0 or 10.0% FBS and MTT reduction was determined after 24, 48, 72 or 96 hours. […] After 24 hours, cells were washed twice with DPBS, fixed and permeabilized by two sequential 5 minute exposures to ice-cold methanol, stained with Giemsa-modified Wright's stain for 3 minutes and washed with DPBS. Cell counts were performed on 10 random fields at 40 power using a 0.01-cm^2 ocular grid. Cell Culture Treatments for Measurement of Airway Smooth Muscle Proliferation. The effect of dehydroepiandrosterone (DHEA) and 16α-bromoepiandrosterone (16α-BrEA) on cellular proliferation was studied in cultures stimulated with 0.5-10% FBS or 1-50 ng/ml recombinant human platelet derived growth factor (PDGF-AA). […] See, for example, the method of Le, Y. Y. , and Xu, R.B., "The molecular mechanism of the action of the pharmacological doses of glucocorticoids. Studies on the low-affinity glucocorticoid receptor," Receptor, 5, 63-69 (1995).

With `C[C@@H]1C[C@H]2[C@@H]3CCC4=CC(=O)C=C[C@]4(C)[C@@]3(F)[C@@H](O)C[C@]2(C)[C@@]1(O)C(=O)CO` [dexamethasone, reference compound], the IC50 is 10 µM.
